The structures appear in SMILES notation. pIC50, pKi: −log10 of the molar value.

Experimental findings from patent publication US10131679B2, “Substituted dihydropyrrolopyrazole compound” (UBE INDUSTRIES, LTD., priority 2014, dated 2018) are described below.

In assay [1] the test system is Human keratinocytes (NHEK-Neo Pooled). Kind of assay: Human keratinocyte growth inhibition assay. Conditions: 48 h, culture for 2 days, Cell Counting Kit-8. The format is cell-based. As for the experimental part: Human Keratinocyte Growth Inhibition Assay
The measurement of a human keratinocyte growth inhibitory effect was carried out by modifying the method of Schafer et al. (British Journal of Pharmacology, 159, 842 (2011)).
Human keratinocytes (NHEK-Neo Pooled, manufactured by Lonza Group AG, Cat. No. 00192906) were cultured in KGM-Gold Bullet Kit (manufactured by Lonza Group AG, Cat. No. 00192060) and inoculated at 2.0×10^3 cells/well to a 96-well plate. After overnight culture in a carbon dioxide incubator, a test compound dissolved in DMSO (final DMSO concentration: 0.1%) was added and left standing in a carbon dioxide incubator. After culture for 2 days, the absorbance thereof was measured by using Cell Counting Kit-8 (343-07623 manufactured by Dojindo Laboratories)).
The rate of inhibition of cell growth at each concentration was calculated from the test compound concentration and the absorbance of Cell Counting Kit-8, and the concentration of the test compound necessary for inhibiting 50% of cell growth (IC50 value) was calculated by using EXSUS (version 8.0.0 or version 8.0.1, manufactured by CAC Exicare Corp.).

In assay [2] the test system is IL-6 production in rat adjuvant arthritis model. As to the kind of experiment: IL-6 production inhibition test in rat adjuvant arthritis model. The format is in vivo, LEW rats. Particulars: single dose, administration of 10 mg/kg, left ankle, read-out: rate of inhibition of IL-6 production. The method, then: IL-6 Production Inhibition Test in Rat Adjuvant Arthritis Model
A single-dose drug efficacy test using rat adjuvant arthritis models was carried out by modifying the method of Magari. K et al. (J. Rheumatol. 30 (10), 2193 (2003)).
LEW rats (female, supplied by Charles River Laboratories Japan, Inc.) were used as laboratory animals. An adjuvant prepared from heat-killed bacteria of Mycobacterium butyricum (264010 manufactured by Difco Laboratories Ltd.) and liquid paraffin (manufactured by Wako Pure Chemical Industries, Ltd., Code No. 128-04375) was subcutaneously administered as a phlogogenic material to the right hind leg footpads of the rats under inhalation anesthesia with isoflurane (manufactured by Wako Pure Chemical Industries, Ltd., Code No. 099-06571) to prepare arthritis models. Approximately 2 weeks later, left paw edema was measured with a paw volume meter (model TK-101CMP manufactured by Unicorn Co., Ltd.), and grouping was performed such that the average volume of left paw edema was equal among groups. A test compound or only a solvent was administered, after a certain time, they were sacrificed by exsanguination from the abdomens under isoflurane anesthesia, and the left ankles were collected, chopped, and frozen by using liquid nitrogen. The collected left ankle portions were disrupted in CRYOPress (model CP-100WP manufactured by Microtec Co., Ltd.), then supplemented with a buffer solution, shaken overnight at 4° C., and then centrifuged to collected a supernatant. The preparation of the buffer solution was performed by mixing a Tris buffer solution (pH 7.4), sodium chloride (NaCl), phenyl methyl sulfonyl fluoride (PMSF), Triton X-100, EDTA-free complete tablets (manufactured by F. Hoffmann-La Roche, Ltd., REF. 11 873 580 001), and Otsuka distilled water (manufactured by Otsuka Pharmaceutical Co., Ltd., product No. 1323). IL-6 in the collected supernatant was measured by using a sandwich ELISA kit (manufactured by R&D Systems, Inc., Catalog No. S6050).
The IL-6 content of each sample was calculated from the calibration curve of Standard IL-6 included in the kit. When the amount of IL-6 produced in the solvent administration control group was defined as 100%, the rate of inhibition of IL-6 production (%) at each dose of the test compound was calculated.

Assay [3] has as its system human large intestine cancer cell line (HCT-116). As to the kind of experiment: Human large intestine cancer (HCT-116) cell growth inhibition test. The format is cell-based. Conditions: 72 h, HCT-116, culture for 3 days, sulforhodamine B absorbance. The essentials: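 HCT-116 cells seeded at 1.0×10^3 cells/well in McCoy's 5a with 10% FBS, then exposed to compound (0.1% DMSO final) for 3 days. Growth measured by sulforhodamine B absorbance; IC50 derived from concentration-inhibition data.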

Assay [4] concerns IL-2 production in human peripheral blood mononuclear cell (PBMC). As to the kind of experiment: Human PBMC CD3/CD28-induced IL-2 production inhibition test. Type of assay: cell-based. Conditions: 48 h, CD3/CD28 stimulation, incubation for 2 days, ELISA. An excerpt: Human Peripheral Blood Mononuclear Cell (PBMC) CD3/CD28-Induced IL-2 Production Inhibition Test
PBMC was separated and collected by using Ficoll-Paque (17-1440-02 manufactured by GE Healthcare Japan Corp.) from blood collected from healthy human adult in the presence of heparin. RPMI1640 medium (manufactured by GIBCO/Thermo Fisher Scientific, Inc., REF. 11875) containing 10% FBS (manufactured by GIBCO/Thermo Fisher Scientific, Inc. REF. 10082) and containing a test compound dissolved in DMSO and 2 μg/mL anti-hCD28 (manufactured by R&D Systems, Inc., Cat. No. MAB342) was added at 100 μL/well to T cell Activation Plate Anti-Human CD3 96-well plate (manufactured by Corning Inc., REF. 354725), and subsequently, a PBMC suspension adjusted such that the number of cells was 2×10^6 cells/mL was added at 100 μL/well (final DMSO concentration: 0.1%). A RPMI1640 medium containing 10% FBS and containing 0.1% DMSO and 2 μg/mL anti-hCD28 was similarly added to wells not supplemented with the test compound. After incubation for 2 days in a carbon dioxide incubator, the culture supernatant was collected. The collected culture supernatant was stored at −20° C. until IL-2 content measurement.
In the measurement of IL-2 content in the culture supernatant, a sandwich ELISA kit Quantikine Human IL-2 (manufactured by R&D Systems, Inc., Cat. No. S2050) was used. The IL-2 content of each sample was calculated from the calibration curve of Standard IL-2 included in the kit. When the amount of IL-2 produced by CD3/CD28 stimulation in the case of the addition of only DMSO was defined as 100%, the rate of inhibition of IL-2 production at each concentration of the test compound was calculated. A test compound concentration inhibiting 50% of IL-2 production was calculated as an IC50 value (nM) from the concentration of the added test compound and the rate of inhibition of IL-2 production by the test compound by using EXSUS (version 8.0.0 or version 8.0.1, manufactured by CAC Exicare Corp.).
(In an ELISA, binding on a coated surface is turned into a signal by an enzyme label.)

The target in a further assay is T1, CDK7 (Homo sapiens, UniProt P50613).
T1 construct: purchased Carna Biosciences, Inc. 04-108
T1 sequence (P50613 whole entry): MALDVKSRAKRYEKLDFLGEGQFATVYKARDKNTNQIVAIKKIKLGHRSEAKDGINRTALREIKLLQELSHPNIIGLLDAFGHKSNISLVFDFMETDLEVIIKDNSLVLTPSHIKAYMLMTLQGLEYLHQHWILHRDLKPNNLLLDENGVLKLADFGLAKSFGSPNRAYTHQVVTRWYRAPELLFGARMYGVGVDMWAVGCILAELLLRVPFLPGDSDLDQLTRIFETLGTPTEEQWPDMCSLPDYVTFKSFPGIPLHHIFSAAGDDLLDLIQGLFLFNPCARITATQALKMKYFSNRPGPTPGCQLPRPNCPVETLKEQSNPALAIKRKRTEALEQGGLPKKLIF
T1 sequence (P51946 whole entry partner): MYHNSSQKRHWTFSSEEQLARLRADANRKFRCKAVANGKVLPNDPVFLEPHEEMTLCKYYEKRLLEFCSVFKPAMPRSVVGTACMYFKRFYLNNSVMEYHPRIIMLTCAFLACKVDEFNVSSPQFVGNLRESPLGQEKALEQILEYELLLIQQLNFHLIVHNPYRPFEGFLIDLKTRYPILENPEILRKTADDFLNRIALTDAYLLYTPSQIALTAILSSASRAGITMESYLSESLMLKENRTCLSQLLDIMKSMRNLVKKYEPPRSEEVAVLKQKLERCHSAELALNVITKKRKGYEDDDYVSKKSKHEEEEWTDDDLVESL
T1 sequence (P51948 whole entry partner): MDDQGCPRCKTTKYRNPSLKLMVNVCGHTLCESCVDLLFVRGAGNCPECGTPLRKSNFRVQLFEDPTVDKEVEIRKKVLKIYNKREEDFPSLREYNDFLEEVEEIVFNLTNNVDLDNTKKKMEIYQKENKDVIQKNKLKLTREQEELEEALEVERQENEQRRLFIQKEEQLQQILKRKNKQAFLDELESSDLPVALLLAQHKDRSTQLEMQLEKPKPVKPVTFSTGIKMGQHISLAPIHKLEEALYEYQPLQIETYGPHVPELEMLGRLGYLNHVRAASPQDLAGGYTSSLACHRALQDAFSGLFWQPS
As to the kind of experiment: CDK7 enzyme inhibition test. The format is biochemical. Conditions: Ki=IC50/(1+S/Km); 33P bound to MBP, [γ-33P]ATP, 30° C. for 20 minutes; read-out: Ki value of CDK7 inhibitory activity. The procedure, abridged: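 Recombinant CDK7 with MBP substrate and [γ-33P]ATP (500 μM solution, diluted into the mix) in HEPES pH 7.4/DTT/Triton X-100/MgCl2, 20 min at 30 °C. TCA-precipitated 33P-MBP counted by scintillation; IC50 from inhibition, Ki = IC50/(1+S/Km).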

In the case of `COCC[C@@H](NC(=O)N1Cc2c(NC(=O)C3([Si](C)(C)C)CCC3)n[nH]c2C1(C)C)c1ccccc1` [IV-235, (R)—N-(3-Methoxy-1-phenylpropyl)-6,6-dimethyl-3-[1-(trimethylsilyl)cyclobutanecarboxamido]-4,6-dihydropyrrolo[3,4-c]pyrazole-5(1H)-carboxamide], the results for the pIC50 in assay [1], in assay [3] and in assay [4] were at least 6.30, at least 6.30 and at least 7.30, respectively. In addition, the inhibition in vivo at 10 mg/kg in assay [2] is at least 50%.

Take `CC1(C)c2[nH]nc(NC(=O)C3([Si](C)(C)C)CC3)c2CN1C(=O)N[C@H](CCO)c1ccccc1` [III-226, (R)—N-(3-Hydroxy-1-phenylpropyl)-6,6-dimethyl-3-[1-(trimethylsilyl)cyclopropanecarboxamido]-4,6-dihydropyrrolo[3,4-c]pyrazole-5(1H)-carboxamide]: the values for the pIC50 in assay [1], in assay [3] and in assay [4] were at least 6.30, at least 6.30 and at least 7.30, respectively. The pKi (as a rule, the Ki on a negative log10 scale, so that one unit is a factor of ten) on CDK7 was at least 7.30.
